Source: patent US4973576A, “Bisphophonic acid derivatives and pharmaceutical compositions containing the same” (Yamanouchi Pharmaceutical Co., Ltd., priority 1987, dated 1990)
“And” between values parts separate entries of the source, which are not always exact repeats. Identical values can stand only once.

What was measured:
[1] = test system: hypercalcemia induced by administration of parathyroid hormone (PTH); test: Inhibitory effect on hypercalcemia induced by PTH in rats (serum Ca++); format: in vivo, male Wistar rats; settings: mean ± S.E.
Experimental: Rats of hypercalcemia induced by administration of parathyroid hormone (hereinafter referred to as "PTH") were used, and the decrement of the serum calcium amount by administration of the compound was measured.
30 μg/kg of human 1-34 PTH (manufactured by Peptide Laboratory) which was dissolved in a 0.1% BSA (bovine serum albumin)-containing physiological saline (content of the PTH is 6 μg/ml) was intravenously injected in an amount of 30 μg/kg (5 ml/kg as the solution) to 5-week male Wistar rats which had been fasting for 20 hours. Only 0.1% BSA-containing physiological saline was injected to the normal control group in the same manner. 45 minutes after the PTH injection, the rats were etherized and then subjected to celiotomy, whereby the blood was collected from the abdominal cava with a vacuum blood-collecting tube. The blood collected was immediately centrifuged by 3000 rpm, at 4° C. for 10 minutes to isolate the serum. The ionized calcium (Ca^++) concentration in the serum was immediately measured with a Ca^++ meter (Sera 250, manufactured by Horiba Manufacturing Co.).
The compounds of the present invention were dissolved using sodium hydroxide and hydrochloric acid, in physiological saline (pH 7.4), for subcutaneous administration, in such amounts that the dose amounted to 2 ml/kg, and for oral administration, in distilled water (pH 7.4) so that the dose amounted to 5 ml/kg. They were administered 24 or 72 hours before the PTH injection. A physiological saline or a distilled water was administered to the normal control group and the control group, in the same manner. Salmon calcitonin (SCT, manufactured by Armour Co.) was dissolved in physiological saline so that the dose amounted to 2 ml/kg, and then subcutaneously administered 30 minutes before the PTH injection.
The results for each group were expressed in terms of mean±S.E. (standard error) and comparison was made among the groups by testing by one-way analysis of variance. The significance level was taken at 5%.

[2] = test system: immobilization-induced atrophy of bone; test: Inhibition of bone resorption: immobilization-induced (neurectomy) atrophy of bone in rats; format: in vivo, Wistar rats; settings: for Left humerus Ashed weight / Left humerus Ashed weight / Dry weight / Left humerus Dry weight: 2 weeks; for Difference of Bone Ash Content (b): nontreated minus treated humerus ashed weight; for Difference of Bone Weight (a): nontreated minus treated humerus dry weight
adjuvant arthritis [3] = test: Experiment (3)-I: therapeutic effect on adjuvant arthritis in rats; format: in vivo, male Lewis rats
Experimental: (§1) Specifically, for investigation of the anti-arthritic effect, experimental models of adjuvant arthritis which is resemble to rheumatoid arthritis in human were used in two test methods. In one method to test the therapeutic effect of the compounds, the compounds to be tested were administered to the animals already having the adjuvant arthritis. In the other method to test the prophylactic effect of the compounds, these were administered after the adjuvant administration, and the expression and progress of the resulting arthritis, if any, was observed.
0.1 ml of a suspension of dry dead cells of Mycobacterium butyricum as suspended in liquid paraffin in a proportion of 6 mg/ml was subcutaneously injected to male Lewis rats (7-week) in the tail. After 17 or 18 days, the thickness of the both hind paws was measured. One group comprising six rats in which the arthritis was noticeably observed was isolated. After the grouping day, the compound to be tested was subcutaneously or orally administered once a day for 14 days to the rats. Next day after the last administration, the thickness of the soles of the both hind legs was again measured.
(§2) For the Experiments (3)-I and (3)-II, the compounds of the present invention were dissolved, using sodium hydroxide and hydrochloric acid in physiological saline (pH 7.4), for subcutaneous administration, in such amount that the dose amounted to 2 ml/kg, and for oral administration, in distilled water (pH 7.4) so that the dose amounted to 5 ml/kg; and indometacin (as comparative drug) was suspended in 0.5% methyl cellulose solution so that the dose amounted to 5 ml/kg. Each rat was weighed at the first day of starting the administration of the compound to be tested and at the last day of the administration of the compound, and the difference of the weight there between (ΔB.W.) was obtained.
(§3) The results for each group were expressed in terms of mean ±S.E. (standard error) and comparison was made among the groups by testing by one-way analysis of variance. The significance level was taken at 5%.

adjuvant arthritis [4] = test: Experiment (3)-II: prophylactic effect on adjuvant arthritis in rats; format: in vivo, male Lewis rats; settings: sc; for Thickness of Paw, Left: adjuvant-injected paw; for Thickness of Paw, Right: opposite paw
Experimental: as §1
0.05 ml of the suspension of dry dead bacilli of Mycobacterium butyricum as suspended in liquid paraffin in a proportion of 6 mg/ml was subcutaneously injected to male Lewis rats (6 to 7-week) in the left hind paw. After the adjuvant injection, the compound to be tested was administered to the rats once a day for 21 days. Next day after the last administration, the thickness of the both hind paws of the rats was measured.
as §2, §3

[5] = Acute toxicity test in rats; format: in vivo; settings: sc, 10 mg/kg/day for continuous two weeks
Experimental: The compound of Manufacture Example 1 was subcutaneously injected to rats in an amount of 10 mg/kg/day for continuous two weeks, and no rats died.

[6] = sc, 10 mg/kg once a day 14 days
[7] = po, 10 mg/kg once a day 14 days
[8] = po, 30 mg/kg once a day 14 days
[9] = po, 100 mg/kg once a day 14 days, 100 mg/kg
[10] = sc, 0.1 mg/kg once a day 14 days
[11] = sc, 0.3 mg/kg once a day 14 days
[12] = sc, 1.0 mg/kg once a day 14 days
[13] = sc, 3.0 mg/kg once a day 14 days

## Cc1cc(NC(P(=O)(O)O)P(=O)(O)O)no1 [Manufacture Example 1, [(5-methyl-3-isoxazolyl)amino]methylene-bis(phosphonic acid)]
[1]; oral, 30 mg/kg, 72 hours before PTH injection
  Serum Ca++: 1.48 ± 0.01 m mole/liter
[1]; oral, 100 mg/kg, 24 hours before PTH injection
  Serum Ca++: 1.44 ± 0.02 m mole/liter
[1]; oral, 100 mg/kg, 72 hours before PTH injection
  Serum Ca++: 1.16 ± 0.03 m mole/liter
[1]; oral, 300 mg/kg, 24 hours before PTH injection
  Serum Ca++: 1.41 ± 0.01 m mole/liter
[1]; sc, 0.3 mg/kg, 24 hours before PTH injection
  Serum Ca++: 1.43 ± 0.02 m mole/liter
[1]; sc, 1.0 mg/kg, 24 hours before PTH injection
  Serum Ca++: 1.40 ± 0.01 m mole/liter
[1]; sc, 3.0 mg/kg, 24 hours before PTH injection
  Serum Ca++: 1.36 ± 0.02 m mole/liter
[2]; oral, 10 mg/kg
  Left humerus Ashed weight: 54.9 ± 1.3 mg
  Left humerus Ashed weight / Dry weight: 53.4 ± 0.3%
  Left humerus Dry weight: 102.8 ± 2.2 mg
[2]; oral, 30 mg/kg
  Left humerus Ashed weight: 61.0 ± 1.0 mg
  Left humerus Ashed weight / Dry weight: 54.4 ± 0.3%
  Left humerus Dry weight: 112.1 ± 1.4 mg
[2]; oral, 100 mg/kg
  Left humerus Ashed weight: 68.9 ± 1.3 mg
  Left humerus Ashed weight / Dry weight: 55.6 ± 0.2%
  Left humerus Dry weight: 123.9 ± 2.3 mg
[2]; sc, 0.1 mg/kg
  Left humerus Ashed weight: 64.9 ± 1.2 mg
  Left humerus Ashed weight / Dry weight: 56.9 ± 0.1%
  Left humerus Dry weight: 113.9 ± 2.0 mg
[2]; sc, 0.3 mg/kg
  Left humerus Ashed weight: 65.4 ± 1.6 mg
  Left humerus Ashed weight / Dry weight: 57.2 ± 0.3%
  Left humerus Dry weight: 114.4 ± 2.6 mg
[2]; sc, 1.0 mg/kg
  Left humerus Ashed weight: 70.1 ± 1.1 mg
  Left humerus Ashed weight / Dry weight: 57.8 ± 0.4%
  Left humerus Dry weight: 121.3 ± 2.1 mg
[2]; sc, 3 mg/kg once a day 14 days
  Difference of Bone Ash Content (b): 4.8 ± 0.5 mg
  Difference of Bone Weight (a): 8.0 ± 1.0 mg
[2]; [6]
  Difference of Bone Ash Content (b): 1.7 ± 0.5 mg
  Difference of Bone Weight (a): 3.2 ± 0.7 mg
Adjuvant arthritis [3]; [7]
  Thickness of Paw (average of right and left paws): 1435 ± 49 × 0.01 mm
  ΔB.W.: 23.3 ± 0.9 g
Adjuvant arthritis [3]; [8]
  Thickness of Paw (average of right and left paws): 1296 ± 45 × 0.01 mm
  ΔB.W.: 32.8 ± 1.7 g
Adjuvant arthritis [3]; [9]
  Thickness of Paw (average of right and left paws): 1131 ± 36 × 0.01 mm and 1083 ± 36 × 0.01 mm
  ΔB.W.: 50 ± 3 g and 43.3 ± 2.0 g
Adjuvant arthritis [3]; [10]
  Thickness of Paw (average of right and left paws): 1258 ± 31 × 0.01 mm
  ΔB.W.: 40 ± 2 g
Adjuvant arthritis [3]; [11]
  Thickness of Paw (average of right and left paws): 1102 ± 36 × 0.01 mm
  ΔB.W.: 50 ± 2 g
Adjuvant arthritis [3]; [12]
  Thickness of Paw (average of right and left paws): 956 ± 36 × 0.01 mm
  ΔB.W.: 56 ± 4 g
Adjuvant arthritis [3]; [13]
  Thickness of Paw (average of right and left paws): 974 ± 32 × 0.01 mm
  ΔB.W.: 56 ± 1 g
Adjuvant arthritis [4]; 0.1 mg/kg once a day 21 days
  ΔB.W.: 238 ± 2 g
  Thickness of Paw, Left: 1277 ± 19 × 0.01 mm
  Thickness of Paw, Right: 1279 ± 27 × 0.01 mm
Adjuvant arthritis [4]; 0.3 mg/kg once a day 21 days
  ΔB.W.: 239 ± 2 g
  Thickness of Paw, Left: 1158 ± 12 × 0.01 mm
  Thickness of Paw, Right: 1107 ± 25 × 0.01 mm
Adjuvant arthritis [4]; 1.0 mg/kg once a day 21 days
  ΔB.W.: 233 ± 3 g
  Thickness of Paw, Left: 1174 ± 14 × 0.01 mm
  Thickness of Paw, Right: 1110 ± 28 × 0.01 mm
[5]
  mortality: no rats died
